Reference: patent US9598387B2 (Southern Research Institute, priority 2012, dated 2017)

How the values were obtained:
D3R = D3R (Homo sapiens (Human), UniProt P35462); experiment: D3 Mitogenesis Functional Assay (3H-thymidine uptake, CHOp-D3 cells); format: cell-based
Method in brief: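 CHO cells expressing human D3, serum-starved 24 h, then given compound (agonist mode) or antagonist plus 30 nM quinpirole final for 16 h at 37 °C. A 2 h [3H]thymidine pulse was used for uptake.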

D2LR = D2LR (Homo sapiens (Human), UniProt P14416); experiment: β-Arrestin Recruitment Assay, CHO-K1 DRD2L; format: cell-based; conditions: antagonist vs EC80 6 nM Pergolide, CHO-K1 DRD2L cells; read-out: D2 IC50
Chain of D2LR (P14416 whole entry): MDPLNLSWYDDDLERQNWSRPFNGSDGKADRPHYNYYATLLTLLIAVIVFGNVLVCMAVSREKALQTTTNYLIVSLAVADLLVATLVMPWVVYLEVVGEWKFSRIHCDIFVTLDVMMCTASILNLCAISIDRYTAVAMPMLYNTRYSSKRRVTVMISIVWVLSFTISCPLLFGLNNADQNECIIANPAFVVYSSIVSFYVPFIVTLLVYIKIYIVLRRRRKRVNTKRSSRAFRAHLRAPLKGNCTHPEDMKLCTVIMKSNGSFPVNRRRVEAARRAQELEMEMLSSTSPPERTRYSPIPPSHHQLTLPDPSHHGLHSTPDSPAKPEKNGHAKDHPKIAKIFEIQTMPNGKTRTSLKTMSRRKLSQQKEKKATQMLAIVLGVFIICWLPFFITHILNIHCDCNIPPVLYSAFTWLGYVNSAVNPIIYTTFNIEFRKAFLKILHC
Procedure: Antagonist potency of the compounds against agonist induced recruitment of β-arrestin by D3R and D2LR was measured using DiscoverRx PathHunter eXpress kits. […] After incubation at 37° C. for 90 min, the DiscoveRx detection reagent was added, the plates were incubated at room temperature for 60 min and the luminescence was measured on a Synergy 4 plate reader (BioTek). The data were plotted and the agonist EC80 values were calculated using GraphPad Prism software. For antagonist activity, the cells were plated as described above and treated with multiple concentrations (starting from 500 nM, half log dilution, 10 dose points) of the test compounds in Plating Reagent with 0.1% DMSO.

Long Evans rats = experiment: Cocaine-induced locomotor activity; format: in vivo, rat; conditions: 3.75, 7.5 or 15 mg/kg 10 minutes before 10 mg/kg cocaine; p<0.05
Procedure: These studies were performed using Long Evans rats using standard protocols. Locomotor activity chambers measuring 43×43×30 cm (l×w×h) were used for the locomotor activity experiments. Each chamber was equipped with eight photo-emitters positioned along the length of the chamber 6 cm above the floor, each paired directly opposite a photocell. Locomotor activity counts were registered when adjacent beams were broken consecutively. Before receiving any drug, the animals (n=96) were placed in locomotor activity chambers for habituation, for 2 hours per day for 3 consecutive days. Based on the locomotor activity score obtained during the third habituation session, animals were assigned into one of […] treatment groups. […] For the 113 alone experiments, each of the four groups received one of 4 doses of 113 (0, 3.75, 7.5 or 15 mg/kg) 10 minutes prior to placement in the activity chambers. For the 113 cocaine interaction experiments, each of 4 groups were injected with one of the 4 doses of the compound (0, 3.75, 7.5 or 15 mg/kg) 10 minutes before receiving 10 mg/kg of cocaine as the second injection. […] The locomotor counts in the 113 alone and 113/cocaine experiments were analyzed using two separate mixed-design ANOVAs with 113 dose (between-groups) and 5-min bins (repeated measures) as factors. […]

[1] = target: human D3 dopamine receptor (Homo sapiens (Human), UniProt P35462); experiment: Whole Cell Adenylyl Cyclase Assay, D3; format: cell-based; conditions: inhibition of forskolin (100 μM) stimulated cAMP, normalized to quinpirole; compound conc ≥10× Ki (per compound); mean ± S.E.M.
Chain of human D3 dopamine receptor (P35462 whole entry): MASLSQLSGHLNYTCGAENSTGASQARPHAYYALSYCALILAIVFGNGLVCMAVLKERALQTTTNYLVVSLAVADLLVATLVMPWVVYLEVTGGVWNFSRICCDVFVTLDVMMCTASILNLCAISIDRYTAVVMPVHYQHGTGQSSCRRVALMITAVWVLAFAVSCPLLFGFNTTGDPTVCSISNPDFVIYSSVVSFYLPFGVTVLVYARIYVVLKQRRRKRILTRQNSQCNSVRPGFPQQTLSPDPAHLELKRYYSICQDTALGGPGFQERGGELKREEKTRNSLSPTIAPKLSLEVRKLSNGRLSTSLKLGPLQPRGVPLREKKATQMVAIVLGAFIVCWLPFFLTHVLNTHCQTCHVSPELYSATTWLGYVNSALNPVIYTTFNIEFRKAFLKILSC

Chain of D3R (P35462 whole entry): as above

Emax at 10 µM (D3R; at 10 μM, % maximum stimulation vs quinpirole (100%), read-out: D3 Agonist Emax): 0%
IC50 (D3R; inhibition of quinpirole (30 nM final) stimulation of mitogenesis, read-out: D3 Antagonist IC50): 157 ± 34 nM
IC50 (D2LR): 261 ± 54 nM
D3 Cyclase % Inhibition Normalized [1]: 27.7 ± 7.0%
Structure (SMILES): CC(C)(C)c1nc(N2CCN(CCCCNC(=O)c3cn4ccccc4n3)CC2)cc(C(F)(F)F)n1 [Compound 113, N-(4-(4-(2-(tert-Butyl)-6-(trifluoromethyl)pyrimidin-4-yl)piperazin-1-yl)butyl)imidazo[1,2-a]pyridine-2-carboxamide]
cocaine-induced locomotor activity (Long Evans rats): significantly reduce cocaine-induced locomotor activity in a dose-related fashion
